Measurements reported in ChEMBL document CHEMBL4184135, “Waspergillamide A, a Nitro depsi-Tetrapeptide Diketopiperazine from an Australian Mud Dauber Wasp-Associated Aspergillus sp. (CMB-W031)” (J Nat Prod, 2017).
Active and inactive are the calls of the source.

Assays:
Staphylococcus aureus = assay: Antimicrobial activity against Staphylococcus aureus ATCC 25923 assessed as inhibition of microbial growth at 0.125 to 32 ug/mL incubated for 24 hrs by broth micro-dilution method; assay type: functional, organism-based
Escherichia coli = assay: Antimicrobial activity against Escherichia coli ATCC 25922 assessed as inhibition of microbial growth at 0.125 to 32 ug/mL incubated for 24 hrs by broth micro-dilution method; assay type: functional, organism-based
Pseudomonas aeruginosa = assay: Antimicrobial activity against Pseudomonas aeruginosa ATCC 27853 assessed as inhibition of microbial growth at 0.125 to 32 ug/mL incubated for 24 hrs by broth micro-dilution method; assay type: functional, organism-based
SW-620 = assay: Cytotoxicity against human SW620 cells assessed as inhibition of cell growth at 10 nM to 30 uM incubated for 72 hrs by MTT assay; assay type: functional, cell-based
NCI-H460 = assay: Cytotoxicity against human NCI-H460 cells assessed as inhibition of cell growth at 10 nM to 30 uM incubated for 72 hrs by MTT assay; assay type: functional, cell-based
KB 3-1 = assay: Cytotoxicity against human KB-3-1 cells assessed as inhibition of cell growth at 10 nM to 30 uM incubated for 72 hrs by MTT assay; assay type: functional, cell-based

Measured: growth inhibition (GI)

CC(C)/C=C1\NC(=O)[C@@H](C(C)(C)OC(=O)CNC(=O)c2ccc([N+](=O)[O-])cc2)NC1=O
inactive: all assays above
